“Also recorded” adds a separate entry of the source.
Tests used:
[1] = system: calcium currents of bladder afferent (DRG) neurons; experiment: Bladder sensory neuron calcium current model (whole cell patch-clamp); format: cell-based, rat
Source text: Labeling of bladder afferent neurons: Adult female Sprague-Dawley rats (150-300 g) were deeply anesthetized with isoflurane. A ventral midline incision was made through the abdominal skin and musculature, exposing the urinary bladder. Five injections of the fluorescent dye Fast Blue (4%) were made into the bladder smooth muscle wall to label primary afferent fibers innervating the bladder. The area was rinsed with sterile saline to eliminate nonspecific spread of dye, and the incision was closed. Rats recovered for 12-14 days to allow for transport of Fast Blue from distal terminals to the cell somata of dorsal root ganglion (DRG) neurons. Labeled neurons were identified in vitro using fluorescence optics. […]
Neurons were incubated in culture medium containing the FITC-labeled lectin BSI-B4 (IB4, […]) at 37° C. for 5 min before recording. The coverslip was washed with extracellular recording solution for 1 min before being placed in a recording chamber mounted on the stage of an inverted microscope equipped with fluorescence optics. […]
Calcium currents were recorded from DRG neurons using standard electrophysiologic protocols. […] Currents were recorded using a patch-clamp amplifier and digitized at 3-10 kHz for acquisition. […] Baseline responses were recorded until a steady-state peak amplitude was obtained, and to ensure that the kinetics of the response were stable. […]

[2] = system: rat bladder irritated by intravesical dilute acetic acid; experiment: Dilute acetic acid model of bladder overactivity, filling cystometry; format: in vivo; conditions: for bladder capacity normalized to pre-irritation saline control values (reversal of acetic acid-induced reduction) / bladder capacity during continuous intravesical dilute acetic acid infusion: rats; for bladder capacity normalized to pre-irritation saline control values (reversal of acetic acid-induced reduction): intravenous cumulative doses: gabapentin 30-300 mg/kg n=11, pregabalin 10-100 mg/kg n=7; for bladder capacity during continuous intravesical dilute acetic acid infusion: intravenous increasing doses (gabapentin 30-300 mg/kg, p=0.0031 by Friedman test; pregabalin 10-100 mg/kg)
Source text: Animal Preparation Female rats (250-275 g BW) were anesthetized with urethane (1.2 g/kg) and a saline-filled catheter (PE-50) was inserted into the jugular vein for intravenous drug administration. Via a midline lower abdominal incision, a flared-tipped PE 50 catheter was inserted into the bladder dome for bladder filling and pressure recording and secured by ligation. The abdominal cavity was moistened with saline and closed by covering with a thin plastic sheet in order to maintain access to the bladder for emptying purposes. Fine silver or stainless steel wire electrodes were inserted into the external urethral sphincter (EUS) percutaneously for electromyography (EMG).
Experimental Design: Saline was continuously infused at a rate of 0.055 ml/min via the bladder filling catheter for 60 minutes to obtain a baseline of lower urinary tract activity (continuous cystometry; CMG). Following the control period, a 0.25% acetic acid solution in saline was infused into the bladder at the same flow rate to induce bladder irritation. Following 30 minutes of AA infusion, 3 vehicle injections were made at 20 minute intervals to determine vehicle effects, if any. Increasing doses of a selected active agent, gabapentin (30, 100 and 300 mg/kg; n=11) or pregabalin (10, 30 and 100 mg/kg; n=7), at half log increments were administered intravenously at 30 minute intervals in order to construct a cumulative dose-response relationship. At the end of the control saline cystometry period, at the third vehicle, and 20 minutes following each subsequent treatment, the infusion pump was stopped, the bladder was emptied via the infusion catheter and a single filling cystometrogram was performed at the same flow rate in order to determine changes in bladder capacity caused by the irritation protocol and subsequent […] drug administration. Body temperature was maintained at 37 C with a heating pad.
Bladder capacity was estimated by single filling cystometry. Data were analyzed by non-parametric ANOVA for repeated measures (Friedman Test) for cumulative dose-response studies and Dunn's Multiple Comparison post-test. In some cases, comparisons were made from the last vehicle measurement (AA/Veh 3). P<0.050 was considered significant.

[3] = system: α2δ subunit of calcium channels; conditions: Bryans et al. (1999) Med. Res. Rev. 19: 149-177; cited from earlier work
[4] = system: rat bladder irritated by intravesical protamine sulfate/KCl; experiment: Urothelial permeation/physiological potassium model (protamine sulfate/KCl bladder irritation), filling cystometry; format: in vivo
Source text: Female rats (250-275 g BW) are anesthetized with urethane (1.2 g/kg) and a saline-filled jugular catheter (PE-50) is inserted for intravenous drug administration. Via a midline abdominal incision, a PE 50 catheter is inserted into the bladder dome for bladder filling and pressure recording. The abdominal cavity is moistened with saline and closed by covering with a thin plastic sheet in order to maintain access to the bladder for filling cystometry emptying purposes. Fine silver or stainless steel wire electrodes are inserted into the external urethral sphincter (EUS) percutaneously for electromyography (EMG).
Saline and all subsequent infusates are continuously infused at a rate of 0.055 ml/min via the bladder filling catheter for 30-60 minutes to obtain a baseline of lower urinary tract activity (continuous cystometry; CMG). Bladder pressure traces act as direct measures of bladder and urethral outlet activity, and EUS-EMG phasic firing and voiding act as indirect measures of lower urinary tract activity during continuous transvesical cystometry. […] Once a stable level of lower urinary tract hyperactivity is established (20-30 minutes), vehicle followed by increasing doses of a selected active agent are administered intravenously in order to construct a cumulative dose-response relationship and their effects on LUT function are monitored for 20 minutes. […]

| SMILES | block of currents recorded from bladder afferent neurons ([1]; 0.1 mM, data not shown) | bladder capacity normalized to pre-irritation saline control values (reversal of acetic acid-induced reduction) [2] [%] | bladder capacity during continuous intravesical dilute acetic acid infusion [2] | binding affinity for the α2δ subunit of calcium channels compared with gabapentin [3] | bladder capacity during continuous bladder irritation (protamine sulfate/KCl) ([4]; rats n=6, 30, 100 and 300 mg/kg intravenously, sequential at 30 minute intervals, p=0.0108 by Friedman test) | drug-induced changes in blood pressure ([4]; rats, intravenous, any dose examined) | bladder capacity response compared with last vehicle measurement (AA/Veh 3) ([2]; rats n=5, 300 mg/kg intravenous, p<0.05 by Dunn's multiple comparison test) | peak calcium current during drug application, relative to control ([1]; 30 μM bath application, six bladder afferent neurons, step from −80 mV to 0 mV, mean±SEM) |
| --- | --- | --- | --- | --- | --- | --- | --- | --- |
| [Cl][Cd][Cl] [CdCl2] | completely blocked | – | – | – | – | – | – | – |
| CC(C)C[C@H](CN)CC(=O)O [Pregabalin, (S)-(3-aminomethyl)-5-methylhexanoic acid] | – | 42 | demonstrate efficacy | even higher binding affinity | – | – | – | – |
| NCC1(CC(=O)O)CCCCC1 [gabapentin, 1-(aminomethyl)cyclohexaneacetic acid] | – | ~50 | partially reversing the reduction in bladder capacity caused by acetic acid in a dose-dependent fashion; also recorded: dose-dependent increase in bladder capacity; also recorded: demonstrate efficacy | – | reversed the irritation effect (decreased bladder capacity) in a dose-dependent fashion; also recorded: dose-dependent increase in bladder capacity | No drug-induced changes in blood pressure | significantly higher than AA/Veh 3 | 85+1% |
